Experimental data from patent publication US20040204746A1, “Enhanced bioavailability of nutrients, pharmaceutical agents, and other bioactive substances through laser resonant homogenization or modification of molecular shape or crystalline form” (priority 1999, published 2004).

Legend:
[1] = tested on: murine macrophages; experiment: Nitrite (nitric oxide) production by LPS-stimulated murine macrophages; assay type: cell-based; conditions: 24 hours; for nitric oxide byproducts compared with control untreated Arg #4: 120 mcg/ml; for Nitrites: determined from optical density; for Nitrites / Mean O.D. ± S.D.: 120 mcg/ml arginine, LPS 1 ng/ml; for Mean O.D. ± S.D.: optical density at 540 nm
Protocol: Paracelsian in Ithaca, N.Y., an outside independent lab, performed the following bioassays. Each arginine sample was added to 12 wells of murine macrophages to achieve a concentration of 120 mcg/ml. This is the estimated serum concentration for a 70 Kg person after ingesting a 6-gram serving of arginine, a level observed in numerous clinical studies to be associated with a wide range of physiologic benefits. LPS at 1 ng/ml was added to each well and the cells were incubated for 24 hours. The nitrite concentration in each well's supernatant was determined 24 hours after initiation of treatment as a relative measure of nitric oxide production.
The results are listed in order of relative nitrite production, from greatest to least. The first column is the Arg #, the second the mean plus or minus the standard deviation of the optical density measurement at 540 nm, a measure of nitrite concentration, and the third column the relative production of nitrites expressed in micrograms per ml as determined from optical density.

[2] = 1600 mg per day, cited from earlier work
[3] = tested on: subject with osteoarthritis; experiment: Pilot test: blood SAMe level and knee pain in a subject with osteoarthritis; assay type: in vivo, human
Source text: As a pilot test, a subject with osteoarthritis had blood SAMe levels measured while taking SAMe and then while taking a betaine formulation. […] On this level of SAMe ingestion for three months, their blood SAMe level was 4.9 (the normal range for this lab is 4.2-8.2). At this time, SAMe was discontinued and they started a methylation formula with one gram of laser treated betaine plus laser treated metabolic cofactors. The betaine and metabolic co-factors were in the same ratios as in the double blind clinical study formula to be described below.

[4] = tested on: subjects that had just survived a first myocardial infarction; conditions: betaine 9 grams daily plus vitamin B12, liver extract, creatine precursor; placebo 25%; cited from earlier work
[5] = tested on: liver SAMe; conditions: animal studies; cited from earlier work
[6] = tested on: murine macrophages; experiment: TNF-alpha production by Echinacea-stimulated murine macrophages (ELISA); assay type: cell-based; conditions: 24 hours, samples at 20 mg/ml with Echinacea
Protocol: An independent outside lab, Paracelsian in Ithaca, N.Y., performed the following bioassays. A standardized Echinacea sample alone or with 20 mg/ml of Samples 1, 2, or 3 were incubated in the tissue culture media of triplicate wells of murine macrophages for 24 hours after Echinacea stimulation and then assayed for tumor necrosis factor-alpha (TNF-alpha) production in triplicate ELISA wells. Positive controls with lipopolysaccharide (LPS) at 1 ng/ml and negative controls were also assayed in the same manner.
Those skilled in the art will appreciate that the use of murine macrophages simulates the body's immune response. Adding the herb Echinacea provides a similar response to that of an immune system that is being irritated. A TNF-alpha reading is a good marker for the extent of inflammation. Thus a substance that causes a significant increase in TNF-alpha in the macrophages can be expected to create substantial inflammation in a human body—especially a body suffering from an autoimmune disease such as inflammatory bowel disease, as well as other physiological problems such as systemic lupus erythematosus, rheumatoid arthritis and food allergies.

[7] = tested on: person with relapsing lupus; experiment: Case report: relapsing lupus treated with the methylation formula; assay type: in vivo, human; conditions: before the formula
Source text: The exemplary patient had suffered with relapsing lupus for several years. At the time of entry into the methylation formula studies of EXAMPLE 6, they had experienced a relapse of severe disease for several months.
Their disease was characterized by exquisitely tender blistering and ulcerating lesions on their hands and feet that made it difficult to walk or open a cabinet door without severe pain. Their skin was pallid, they were extremely fatigued with a chronic low energy state, and had suffered extensive hair loss. Their sedimentation rate, a marker for systemic inflammation, was highly elevated at 99, whereas a normal level would be 0-30. […] They declined the use of corticosteroids due to severe treatment side effects during a prior relapse.
The subject was randomized to the placebo control group and for 3 months had no improvement in condition. In the second phase of the study, they were placed on a high dose of the methylation formula of 6 grams of laser treated betaine plus cofactors daily. […]
The subject continued on a lower dose of the laser treated methylation formula for 5 more months, reduced to 1-2 grams of the laser treated betaine plus cofactors. […] At the end of fifth month of lower dose treatment, their sedimentation rate had dropped to the very low normal value of 1, the lowest level ever recorded for them.

N=C(N)NCCC[C@H](N)C(=O)O [Arg #3, L-arginine]
nitric oxide byproducts compared with control untreated Arg #4 [1]: statistically significantly more nitric oxide byproducts | Nitrites [1]: 12.0 micrograms per ml | Mean O.D. ± S.D. [1]: .232 ± .010

C[S+](CC[C@H](N)C(=O)O)C[C@H]1O[C@@H](n2cnc3c(N)ncnc32)[C@H](O)[C@@H]1O (stereo partly shown) [SAMe, S-adenosyl-methionine]
side effects [2]: essentially free of side effects | onset of anti-depressant effects ([2]; tricyclics 4-6 weeks): within one week | blood SAMe level ([3]; 800 mg of SAMe daily for three months, normal range 4.2-8.2): 4.9 | knee pain ([3]; osteoarthritis): moderate degree of relief

N=C(N)NCCC[C@H](N)C(=O)O [Arg #2, L-arginine]
nitric oxide byproducts compared with control untreated Arg #4 [1]: statistically significantly less nitric oxide byproducts | Nitrites [1]: 10.8 micrograms per ml | Mean O.D. ± S.D. [1]: .219 ± .008

C[N+](C)(C)CC(=O)O [betaine, N,N,N-trimethylglycine]
mortality after one year [4]: no mortality | rise of liver SAMe levels [5]: up to fourfold

lipopolysaccharide [LPS 1 ng/ml Control]
TNF-alpha ± S.D. [6]: 2863 ± 185.7

CCN(CCO)CCCC(C)Nc1ccnc2cc(Cl)ccc12 (stereo not shown) [Plaquenil]
relief of lupus symptoms [7]: did little to relieve their symptoms

N=C(N)NCCC[C@H](N)C(=O)O [Arg #1, L-arginine]
nitric oxide byproducts compared with control untreated Arg #4 [1]: statistically significantly less nitric oxide byproducts | Nitrites [1]: 10.6 micrograms per ml | Mean O.D. ± S.D. [1]: .215 ± .007

N=C(N)NCCC[C@H](N)C(=O)O [Arg #4, L-arginine]
Nitrites [1]: 11.4 micrograms per ml | Mean O.D. ± S.D. [1]: .224 ± .006
